Reference: ChEMBL document CHEMBL1146784, “Human ACAT-1 and -2 inhibitory activities of saucerneol B, manassantin A and B isolated from Saururus chinensis” (Bioorg Med Chem Lett, 2004)
pIC50: −log10 of the molar value. Values belong to the molecule of their own block, whether it stands above or below them.

What was measured:
[1] = molecular target: T1, Sterol O-acyltransferase 2 (Homo sapiens) (UniProt O75908); experiment: (§1) Concentration required to inhibit Acyl coenzyme A:cholesterol acyltransferase 2; details: concentration not given here
T1 sequence (whole entry): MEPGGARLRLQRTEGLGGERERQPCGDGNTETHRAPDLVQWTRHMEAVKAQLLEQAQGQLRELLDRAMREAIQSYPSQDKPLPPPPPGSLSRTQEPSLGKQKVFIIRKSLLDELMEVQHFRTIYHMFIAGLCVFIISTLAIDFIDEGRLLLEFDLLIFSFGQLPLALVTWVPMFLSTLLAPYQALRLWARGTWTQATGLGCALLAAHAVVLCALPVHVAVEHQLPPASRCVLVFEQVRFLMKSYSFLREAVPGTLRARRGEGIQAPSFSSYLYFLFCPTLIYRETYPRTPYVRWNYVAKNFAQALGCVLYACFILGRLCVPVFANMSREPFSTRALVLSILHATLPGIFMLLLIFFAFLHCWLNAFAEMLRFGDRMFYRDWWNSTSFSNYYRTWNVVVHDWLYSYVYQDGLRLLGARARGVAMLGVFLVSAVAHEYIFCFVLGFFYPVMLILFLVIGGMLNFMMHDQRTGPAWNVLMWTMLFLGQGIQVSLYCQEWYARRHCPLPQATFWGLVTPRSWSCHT

[2] = molecular target: T2, Sterol O-acyltransferase 2 (Homo sapiens, UniProt O75908); experiment: as §1
T2 sequence (O75908 whole entry): T1 sequence (whole entry)

[3] = species: Mus musculus; experiment: Effect against body weight of mice when treated with 0.1% wt/wt diet of compound for 10 days; On day 0 =21.8 g; type: functional

inhibition [1]: 32%
Compound: COc1ccc(C(O)C(C)Oc2ccc([C@H]3O[C@H](c4ccc(OC(C)C(O)c5ccc6c(c5)OCO6)c(OC)c4)[C@H](C)[C@H]3C)cc2OC)cc1OC (stereo partly drawn)

pIC50 [2]: 4.41
Compound: COc1ccc(C(O)C(C)Oc2ccc([C@H]3O[C@H](c4ccc(OC(C)C(O)c5ccc(OC)c(OC)c5)c(OC)c4)[C@H](C)[C@H]3C)cc2OC)cc1OC (stereo partly drawn)

Compound: CC(C)(Sc1cc(C(C)(C)C)c(O)c(C(C)(C)C)c1)Sc1cc(C(C)(C)C)c(O)c(C(C)(C)C)c1 [PROBUCOL]
Body weight [3]: 23.7 g
